Test results: US6737383B1, “Herbicidal oxadiazolidines” (priority 1999, dated 2004)

How the values were obtained:
purple nutsedge = test: Test B pre/postemergence purple nutsedge; assay type: in vivo, Cyperus rotundus; settings: for Plant response rating, Nutsedge: scale of 0 to 10 where 0 is no effect and 10 is complete control
Summary of the method: (§1)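 Response is a visual 0-to-10 score relative to untreated plants, where 0 means no effect and 10 means complete control, taken twelve to sixteen days after application. Treatments went onto soil at planting and onto foliage of 1- to 4-leaf plants, using a surfactant-containing non-phytotoxic solvent.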

smallflower flatsedge = test: Test B flood test smallflower flatsedge; assay type: in vivo, Cyperus difformis
Summary of the method: (§2)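 Plants were grown to the 2-leaf stage before treatment with test chemical, then held in a greenhouse for twelve to sixteen days. Injury was visually rated against untreated controls on a 0–10 scale, where 0 is no effect and 10 is complete control.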

crabgrass = test: Test B pre/postemergence crabgrass; assay type: in vivo, Digitaria sanguinalis
Summary of the method: as §1

cocklebur = test: Test B pre/postemergence cocklebur; assay type: in vivo, Xanthium strumarium
Summary of the method: as §1

soybean = test: Test B pre/postemergence soybean; assay type: in vivo, Glycine max; settings: for Plant response rating, Soybean: scale of 0 to 10 where 0 is no effect and 10 is complete control
Summary of the method: as §1

bedstraw = test: Test B pre/postemergence bedstraw; assay type: in vivo, Galium aparine; settings: Preemergence, Rate 250 g/ha; scale 0 to 10, 0 is no effect, 10 is complete control
Summary of the method: as §1

surinam grass = test: Test B pre/postemergence surinam grass; assay type: in vivo, Brachiaria decumbens
Summary of the method: as §1

pigweed = test: Test B pre/postemergence pigweed; assay type: in vivo, Amaranthus retroflexus; settings: for Plant response rating, Redroot pigweed: scale of 0 to 10 where 0 is no effect and 10 is complete control
Summary of the method: as §1

wild oat = test: Test B pre/postemergence wild oat; assay type: in vivo, Avena fatua; settings: for Plant response rating, Wild oats: scale of 0 to 10 where 0 is no effect and 10 is complete control
Summary of the method: as §1

sugar beet = test: Test B pre/postemergence sugar beet; assay type: in vivo, Beta vulgaris; settings: for Plant response rating, Sugarbeets: scale of 0 to 10 where 0 is no effect and 10 is complete control
Summary of the method: as §1

blackgrass = test: Test B pre/postemergence blackgrass; assay type: in vivo, Alopecurus myosuroides
Summary of the method: as §1

bamyardgrass = test: Test B flood test barnyardgrass; assay type: in vivo, Echinochloa crus-galli
Summary of the method: as §2

velvetleaf = test: Test B pre/postemergence velvetleaf; assay type: in vivo, Abutilon theophrasti; settings: for Plant response rating, Velvetleaf: scale of 0 to 10 where 0 is no effect and 10 is complete control
Summary of the method: as §1

wheat = test: Test B pre/postemergence wheat; assay type: in vivo, Triticum aestivum; settings: for Plant response rating, Wheat: scale of 0 to 10 where 0 is no effect and 10 is complete control
Summary of the method: as §1

corn = test: Test B pre/postemergence corn; assay type: in vivo, Zea mays
Summary of the method: as §1

rape = test: Test B pre/postemergence rape; assay type: in vivo, Brassica napus; settings: for Plant response rating, Rape: scale of 0 to 10 where 0 is no effect and 10 is complete control
Summary of the method: as §1

[1] = Postemergence, Rate 250 g/ha, scale 0 to 10
[2] = Preemergence, Rate 250 g/ha, scale 0 to 10, 0 is no effect, 10 is complete control
[3] = Preemergence, Rate 500 g/ha, scale 0 to 10, 0 is no effect, 10 is complete control
[4] = Rate 62 g/ha, Postemergence, scale 0 to 10 (0 no effect, 10 complete control)
[5] = Rate 125 g/ha, Postemergence, scale 0 to 10, 0 is no effect, 10 is complete control
[6] = Rate 62 g/ha, flood test species, Pre-emergence, visual evaluation after twelve to sixteen days
[7] = Rate 125 g/ha, under heading Pre-emergence, flood test species, visual evaluation after twelve to sixteen days
[8] = Rate 250 g/ha, Pre-emergence (flood test species), scale 0 to 10, 0 is no effect, 10 is complete control
[9] = Rate 500 g/ha, Pre-emergence, flood test species, scale 0 to 10 (0 no effect, 10 complete control)
[10] = Postemergence, Rate 500 g/ha, scale of 0 to 10 where 0 is no effect and 10 is complete control
[11] = Preemergence, Rate 62 g/ha, scale of 0 to 10 where 0 is no effect and 10 is complete control
[12] = Preemergence, Rate 125 g/ha, scale of 0 to 10 where 0 is no effect and 10 is complete control

CC(C)N(C(=O)n1oc(=O)n(CCC[Si](C)(C)C)c1=O)c1ccc(F)cc1 [Compound 461]
Nutsedge plant response rating (purple nutsedge; [1]): 0
Plant response rating, Nutsedge (purple nutsedge; Preemergence, Rate 62 g/ha): 0
Plant response rating, Nutsedge (purple nutsedge; Preemergence, Rate 125 g/ha): 0
Nutsedge plant response rating (purple nutsedge; [2]): 0
Nutsedge plant response rating (purple nutsedge; [3]): 0
Nutsedge plant response rating (purple nutsedge; [4]): 0
Nutsedge plant response rating (purple nutsedge; [5]): 0
Plant response rating, S. Flatsedge (0 to 10 scale, 0 is no effect, 10 is complete control) (smallflower flatsedge; [6]): 0
S. Flatsedge plant response rating (0 to 10 scale, 0 is no effect, 10 is complete control) (smallflower flatsedge; [7]): 0
S. Flatsedge plant response rating (smallflower flatsedge; [8]): 0
S. Flatsedge plant response rating (smallflower flatsedge; [9]): 0
Crabgrass plant response rating (crabgrass; [1]): 0
Crabgrass plant response rating (crabgrass; [10]): 2
Plant response rating, Crabgrass (crabgrass; [11]): 0
Plant response rating, Crabgrass (crabgrass; [12]): 0
Crabgrass plant response rating (crabgrass; [2]): 0
Crabgrass plant response rating (crabgrass; [3]): 3
Crabgrass plant response rating (crabgrass; [4]): 0
Crabgrass plant response rating (crabgrass; [5]): 0
Cocklebur plant response rating (cocklebur; [1]): 0
Cocklebur plant response rating (cocklebur; [10]): 3
Plant response rating, Cocklebur (cocklebur; [11]): 0
Plant response rating, Cocklebur (cocklebur; [12]): 0
Cocklebur plant response rating (cocklebur; [2]): 0
Cocklebur plant response rating (cocklebur; [3]): 0
Cocklebur plant response rating (cocklebur; [4]): 0
Cocklebur plant response rating (cocklebur; [5]): 0
Soybean plant response rating (soybean; [1]): 3
Plant response rating, Soybean (soybean; Preemergence, Rate 62 g/ha): 0
Plant response rating, Soybean (soybean; Preemergence, Rate 125 g/ha): 0
Soybean plant response rating (soybean; [2]): 0
Soybean plant response rating (soybean; [3]): 0
Soybean plant response rating (soybean; [4]): 2
Soybean plant response rating (soybean; [5]): 3
Bedstraw plant response rating (bedstraw): 0
B. signalgrass plant response rating (surinam grass; Postemergence, Rate 250 g/ha, scale 0 to 10, 0 no effect, 10 complete control): 0
B. signalgrass plant response rating (surinam grass; [10]): 0
Plant response rating, B. signalgrass (surinam grass; [11]): 0
Plant response rating, B. signalgrass (surinam grass; [12]): 0
B. signalgrass plant response rating (surinam grass; [2]): 0
B. signalgrass plant response rating (surinam grass; [3]): 0
B. signalgrass plant response rating (surinam grass; [4]): 0
B. signalgrass plant response rating (surinam grass; [5]): 0
Redroot pigweed plant response rating (pigweed; [1]): 0
Plant response rating, Redroot pigweed (pigweed; Preemergence, Rate 62 g/ha): 0
Plant response rating, Redroot pigweed (pigweed; Preemergence, Rate 125 g/ha): 0
Redroot pigweed plant response rating (pigweed; [2]): 0
Redroot pigweed plant response rating (pigweed; [3]): 0
Redroot pigweed plant response rating (pigweed; [4]): 0
Redroot pigweed plant response rating (pigweed; [5]): 0
Wild oats plant response rating (wild oat; [1]): 0
Plant response rating, Wild oats (wild oat; Preemergence, Rate 62 g/ha): 0
Plant response rating, Wild oats (wild oat; Preemergence, Rate 125 g/ha): 0
Wild oats plant response rating (wild oat; [2]): 0
Wild oats plant response rating (wild oat; [3]): 0
Wild oats plant response rating (wild oat; [4]): 0
Wild oats plant response rating (wild oat; [5]): 0
Sugarbeets plant response rating (sugar beet; [1]): 0
Plant response rating, Sugarbeets (sugar beet; Preemergence, Rate 62 g/ha): 0
Plant response rating, Sugarbeets (sugar beet; Preemergence, Rate 125 g/ha): 0
Sugarbeets plant response rating (sugar beet; [2]): 0
Sugarbeets plant response rating (sugar beet; [3]): 0
Sugarbeets plant response rating (sugar beet; [4]): 0
Sugarbeets plant response rating (sugar beet; [5]): 0
Blackgrass plant response rating (blackgrass; [1]): 0
Blackgrass plant response rating (blackgrass; [10]): 3
Plant response rating, Blackgrass (blackgrass; [11]): 0
Plant response rating, Blackgrass (blackgrass; [12]): 0
Blackgrass plant response rating (blackgrass; [2]): 0
Blackgrass plant response rating (blackgrass; [3]): 0
Blackgrass plant response rating (blackgrass; [4]): 0
Blackgrass plant response rating (blackgrass; [5]): 0
Plant response rating, Barnyardgrass (0 to 10 scale, 0 is no effect, 10 is complete control) (bamyardgrass; [6]): 0
Barnyardgrass plant response rating (0 to 10 scale, 0 is no effect, 10 is complete control) (bamyardgrass; [7]): 0
Barnyardgrass plant response rating (bamyardgrass; [8]): 0
Barnyardgrass plant response rating (bamyardgrass; [9]): 0
Velvetleaf plant response rating (velvetleaf; [1]): 0
Plant response rating, Velvetleaf (velvetleaf; Preemergence, Rate 62 g/ha): 0
Plant response rating, Velvetleaf (velvetleaf; Preemergence, Rate 125 g/ha): 0
Velvetleaf plant response rating (velvetleaf; [2]): 0
Velvetleaf plant response rating (velvetleaf; [3]): 0
Velvetleaf plant response rating (velvetleaf; [4]): 0
Velvetleaf plant response rating (velvetleaf; [5]): 0
Wheat plant response rating (wheat; [1]): 0
Plant response rating, Wheat (wheat; Preemergence, Rate 62 g/ha): 0
Plant response rating, Wheat (wheat; Preemergence, Rate 125 g/ha): 0
Wheat plant response rating (wheat; [2]): 0
Wheat plant response rating (wheat; [3]): 0
Wheat plant response rating (wheat; [4]): 0
Wheat plant response rating (wheat; [5]): 0
Corn plant response rating (corn; [1]): 0
Corn plant response rating (corn; [10]): 0
Plant response rating, Corn (corn; [11]): 0
Plant response rating, Corn (corn; [12]): 0
Corn plant response rating (corn; [2]): 0
Corn plant response rating (corn; [3]): 0
Corn plant response rating (corn; [4]): 0
Corn plant response rating (corn; [5]): 0
Rape plant response rating (rape; [1]): 0
Plant response rating, Rape (rape; Preemergence, Rate 62 g/ha): 0
Plant response rating, Rape (rape; Preemergence, Rate 125 g/ha): 0
Rape plant response rating (rape; [2]): 0
Rape plant response rating (rape; [3]): 0
Rape plant response rating (rape; [4]): 0
Rape plant response rating (rape; [5]): 0
